According to patent publication US8168647B2, “Vinblastine derivatives, their preparation, use and pharmaceutical compositions comprising the said derivatives” (Shanghai Institute of Materia Medica Chinese Academy of …, priority 2007, dated 2012):
Structures can show the parent of a compound that is named as a salt. Where two headings read alike, the source gives them in different places. Marks after values point to notes of the source that are not given here.

Columns and labels:
sarcoma 180 = assay: In vivo antitumor assay on Sarcoma 180 (S180) in mice; settings: for inhibition in vivo at 10 mg/kg: read-out: Inhibition rate %, 10 mg/kg, iv, d 1, 4
[1] = tested on: human cervical carcinoma cell line Hela; assay: In vitro cytotoxicity assay, Sulforhodamine B (SRB), Hela; assay type: cell-based
[2] = tested on: human non-small cell lung cancer cell line A-549; assay: In vitro cytotoxicity assay, Sulforhodamine B (SRB), A-549; assay type: cell-based
[3] = Mus musculus, Sarcoma-180, iv, read-out: Inhibition rate %, 20 mg/kg, iv d 1
[4] = Homo sapiens, HeLa, 72 h, read-out: Hela (IC50, nM)
[5] = Homo sapiens, A549, 72 h, read-out: A549 (IC50, nM)

Compound | IC50 [1, 4] [nM] | IC50 [2, 5] [nM] | also measured
CCC1=C[C@@H]2CN(CCc3c([nH]c4ccccc34)[C@@](C(=O)OC)(c3cc4c(cc3OC)N(C)[C@H]3[C@@](O)(C(=O)OC)[C@H](OC(C)=O)[C@]5(CC)C=CCN6CC[C@]43[C@@H]65)C2)C1 [Anhydrovinblastine tartrate, anhydrovinblastine tartrate, reference compound] | – | – | Average weight (g) At sacrifice (sarcoma 180; 10 mg/kg, iv, d 1, 4): 27.9 g; Inhibition rate % (sarcoma 180; 10 mg/kg, iv, d 1, 4): 69.4* %; Tumor Weight (g) X ± SD (sarcoma 180; 10 mg/kg, iv, d 1, 4): 0.49 ± 0.10 g; IC50 ([1]; SRB assay, 72 hours incubation, ditartrate of all compounds used, read-out: Hela (IC50)): 40.2 nM; IC50 ([2]; SRB assay, 72 hours incubation, ditartrate of all compounds used, read-out: A549 (IC50)): 60.2 nM
CCC(=O)NCC1(O)[C@H](OC(C)=O)[C@]2(CC)C=CCN3CC[C@@]4(c5cc([C@@]6(C(=O)OC)C[C@@H]7C=C(CC)CN(CCc8c6[nH]c6ccccc86)C7)c(OC)cc5N(C)[C@@H]14)[C@@H]32 (stereo partly drawn) [BM27] | 13.4 | 42.9 | Average weight (g) At sacrifice (sarcoma 180; 10 mg/kg, iv, d 1, 4): 21.4 g; Tumor Weight (g) X ± SD (sarcoma 180; 10 mg/kg, iv, d 1, 4): 0.25 ± 0.06 g; Average weight (g) At sacrifice (sarcoma 180; 20 mg/kg, iv d 1): 20.7 g; Tumor Weight (g) X ± SD (sarcoma 180; 20 mg/kg, iv d 1): 0.16 ± 0.03 g; inhibition in vivo at 10 mg/kg (sarcoma 180; Mus musculus, Sarcoma-180, iv): 84.4%; inhibition in vivo at 20 mg/kg (sarcoma 180; [3]): 90%; cell-based efficacy, inhibition of tumor cell proliferation (in words) [2]: excellent cell-based efficacy
CCC1=C[C@@H]2CN(CCc3c([nH]c4ccccc34)[C@@](C(=O)OC)(c3cc4c(cc3OC)N(C)[C@H]3C(O)(CNC(=O)C5CC5)[C@H](OC(C)=O)[C@]5(CC)C=CCN6CC[C@]43[C@@H]65)C2)C1 (stereo partly drawn) [BM33] | 17 | 26.4 | Average weight (g) At sacrifice (sarcoma 180; 10 mg/kg, iv, d 1, 4): 22.2 g; Tumor Weight (g) X ± SD (sarcoma 180; 10 mg/kg, iv, d 1, 4): 0.30 ± 0.05 g; Average weight (g) At sacrifice (sarcoma 180; 20 mg/kg, iv d 1): 23.9 g; Tumor Weight (g) X ± SD (sarcoma 180; 20 mg/kg, iv d 1): 0.18 ± 0.02 g; inhibition in vivo at 10 mg/kg (sarcoma 180; Mus musculus, Sarcoma-180, iv): 81.3%; inhibition in vivo at 20 mg/kg (sarcoma 180; [3]): 88.8%; cell-based efficacy, inhibition of tumor cell proliferation (in words) [2]: excellent cell-based efficacy
CCC1=C[C@@H]2CN(CCc3c([nH]c4ccccc34)[C@@](C(=O)OC)(c3cc4c(cc3OC)N(C)[C@H]3C(O)(CNC(=O)c5ccc6c(c5)OCO6)[C@H](OC(C)=O)[C@]5(CC)C=CCN6CC[C@]43C65)C2)C1 (stereo partly drawn) [BM47] | 19 | 14.4 | Average weight (g) At sacrifice (sarcoma 180; 10 mg/kg, iv, d 1, 4): 25.3 g; Tumor Weight (g) X ± SD (sarcoma 180; 10 mg/kg, iv, d 1, 4): 0.67 ± 0.07 g; Average weight (g) At sacrifice (sarcoma 180; 20 mg/kg, iv d 1): 23.3 g; Tumor Weight (g) X ± SD (sarcoma 180; 20 mg/kg, iv d 1): 0.54 ± 0.17 g; inhibition in vivo at 10 mg/kg (sarcoma 180; Mus musculus, Sarcoma-180, iv): 58.1%; inhibition in vivo at 20 mg/kg (sarcoma 180; [3]): 66.3%; cell-based efficacy, inhibition of tumor cell proliferation (in words) [2]: excellent cell-based efficacy
CCC1=C[C@@H]2CN(CCc3c([nH]c4ccccc34)[C@@](C(=O)OC)(c3cc4c(cc3OC)N(C)[C@H]3C(O)(CNC(=O)OCC(C)C)[C@H](OC(C)=O)[C@]5(CC)C=CCN6CC[C@]43[C@@H]65)C2)C1 (stereo partly drawn) [BM53] | 7.1 | 13.7 | Average weight (g) At sacrifice (sarcoma 180; 10 mg/kg, iv, d 1, 4): 25.4 g; Tumor Weight (g) X ± SD (sarcoma 180; 10 mg/kg, iv, d 1, 4): 0.24 ± 0.09 g; inhibition in vivo at 10 mg/kg (sarcoma 180; Mus musculus, Sarcoma-180, iv): 85%; cell-based efficacy, inhibition of tumor cell proliferation (in words) [2]: excellent cell-based efficacy
CCC1=C[C@@H]2CN(CCc3c([nH]c4ccccc34)[C@@](C(=O)OC)(c3cc4c(cc3OC)N(C)[C@H]3C(O)(CNC(=O)OCC5CC5)[C@H](OC(C)=O)[C@]5(CC)C=CCN6CC[C@]43[C@@H]65)C2)C1 (stereo partly drawn) [BM57] | 13.2 | 60.6 | Average weight (g) At sacrifice (sarcoma 180; 10 mg/kg, iv, d 1, 4): 25.2 g; Tumor Weight (g) X ± SD (sarcoma 180; 10 mg/kg, iv, d 1, 4): 0.26 ± 0.07 g; inhibition in vivo at 10 mg/kg (sarcoma 180; Mus musculus, Sarcoma-180, iv): 83.8%; cell-based efficacy, inhibition of tumor cell proliferation (in words) [2]: excellent cell-based efficacy
CCC1=C[C@@H]2CN(CCc3c([nH]c4ccccc34)[C@@](C(=O)OC)(c3cc4c(cc3OC)N(C)[C@H]3C(O)(CNC(=O)OC5CCCC5)[C@H](OC(C)=O)[C@]5(CC)C=CCN6CC[C@]43[C@@H]65)C2)C1 (stereo partly drawn) [BM59] | 79.8 | 170 | –
CCC1=C[C@@H]2CN(CCc3c([nH]c4ccccc34)[C@@](C(=O)OC)(c3cc4c(cc3OC)N(C)[C@H]3C(O)(CNC(=O)OC5CCCCC5)[C@H](OC(C)=O)[C@]5(CC)C=CCN6CC[C@]43[C@@H]65)C2)C1 (stereo partly drawn) [BM60] | 75.9 | 226 | –
CCC1=C[C@@H]2CN(CCc3c([nH]c4ccccc34)[C@@](C(=O)OC)(c3cc4c(cc3OC)N(C)[C@H]3C(O)(CNC(=O)Oc5ccccc5)[C@H](OC(C)=O)[C@]5(CC)C=CCN6CC[C@]43[C@@H]65)C2)C1 (stereo partly drawn) [BM61] | 683 | 978 | –
CCC1=C[C@@H]2CN(CCc3c([nH]c4ccccc34)[C@@](C(=O)OC)(c3cc4c(cc3OC)N(C)[C@H]3C(O)(CNC(=O)Oc5ccc(F)cc5)[C@H](OC(C)=O)[C@]5(CC)C=CCN6CC[C@]43[C@@H]65)C2)C1 (stereo partly drawn) [BM62] | 377 | > 1000 | –
CCC1=C[C@@H]2CN(CCc3c([nH]c4ccccc34)[C@@](C(=O)OC)(c3cc4c(cc3OC)N(C)[C@H]3C(O)(CNC(=O)Oc5ccc(F)c(F)c5)[C@H](OC(C)=O)[C@]5(CC)C=CCN6CC[C@]43[C@@H]65)C2)C1 (stereo partly drawn) [BM63] | 264 | > 1000 | –
CCC1=C[C@@H]2CN(CCc3c([nH]c4ccccc34)[C@@](C(=O)OC)(c3cc4c(cc3OC)N(C)[C@H]3C(O)(CNC(=O)Oc5ccccc5OC)[C@H](OC(C)=O)[C@]5(CC)C=CCN6CC[C@]43[C@@H]65)C2)C1 (stereo partly drawn) [BM64] | 227 | 951 | –
CCC1=C[C@@H]2CN(CCc3c([nH]c4ccccc34)[C@@](C(=O)OC)(c3cc4c(cc3OC)N(C)[C@H]3C(O)(CNC(=O)Oc5ccc(OC)cc5)[C@H](OC(C)=O)[C@]5(CC)C=CCN6CC[C@]43[C@@H]65)C2)C1 (stereo partly drawn) [BM65] | 159 | 344 | –
CCC1=C[C@@H]2CN(CCc3c([nH]c4ccccc34)[C@@](C(=O)OC)(c3cc4c(cc3OC)N(C)[C@H]3C(O)(CNC(=O)OCc5ccccc5)[C@H](OC(C)=O)[C@]5(CC)C=CCN6CC[C@]43[C@@H]65)C2)C1 (stereo partly drawn) [BM66] | 87.5 | 261 | –
CCC1=C[C@@H]2CN(CCc3c([nH]c4ccccc34)[C@@](C(=O)OC)(c3cc4c(cc3OC)N(C)[C@H]3C(O)(CNC(=O)OCc5ccccc5OC)[C@H](OC(C)=O)[C@]5(CC)C=CCN6CC[C@]43[C@@H]65)C2)C1 (stereo partly drawn) [BM67] | 176 | 480 | –
CCC1=C[C@@H]2CN(CCc3c([nH]c4ccccc34)[C@@](C(=O)OC)(c3cc4c(cc3OC)N(C)[C@H]3C(O)(CNC(=O)OCc5ccc(OC)cc5)[C@H](OC(C)=O)[C@]5(CC)C=CCN6CC[C@]43[C@@H]65)C2)C1 (stereo partly drawn) [BM68] | 87.6 | 150 | –
CCC1=C[C@@H]2CN(CCc3c([nH]c4ccccc34)[C@@](C(=O)OC)(c3cc4c(cc3OC)N(C)[C@H]3C(O)(CNC(=O)OCc5ccc6c(c5)OCO6)[C@H](OC(C)=O)[C@]5(CC)C=CCN6CC[C@]43[C@@H]65)C2)C1 (stereo partly drawn) [BM69] | 127 | 230 | –
CCC1=C[C@@H]2CN(CCc3c([nH]c4ccccc34)[C@@](C(=O)OC)(c3cc4c(cc3OC)N(C)[C@H]3C(O)(CNC(=O)OCc5cccc(Cl)c5)[C@H](OC(C)=O)[C@]5(CC)C=CCN6CC[C@]43[C@@H]65)C2)C1 (stereo partly drawn) [BM70] | > 1000 | > 1000 | –
CCC1=C[C@@H]2CN(CCc3c([nH]c4ccccc34)[C@@](C(=O)OC)(c3cc4c(cc3OC)N(C)[C@H]3C(O)(CNC(=O)OCc5ccc(Cl)cc5)[C@H](OC(C)=O)[C@]5(CC)C=CCN6CC[C@]43[C@@H]65)C2)C1 (stereo partly drawn) [BM71] | 347 | 510 | –
CCC1=C[C@@H]2CN(CCc3c([nH]c4ccccc34)[C@@](C(=O)OC)(c3cc4c(cc3OC)N(C)[C@H]3C(O)(CNC(=O)OCc5ccccc5[N+](=O)[O-])[C@H](OC(C)=O)[C@]5(CC)C=CCN6CC[C@]43[C@@H]65)C2)C1 (stereo partly drawn) [BM72] | 561 | 830 | –
CCC1=C[C@@H]2CN(CCc3c([nH]c4ccccc34)[C@@](C(=O)OC)(c3cc4c(cc3OC)N(C)[C@H]3C(O)(CNC(=O)OCc5ccc([N+](=O)[O-])cc5)[C@H](OC(C)=O)[C@]5(CC)C=CCN6CC[C@]43[C@@H]65)C2)C1 (stereo partly drawn) [BM73] | 432 | 780 | –
CCC1=C[C@@H]2CN(CCc3c([nH]c4ccccc34)[C@@](C(=O)OC)(c3cc4c(cc3OC)N(C)[C@H]3[C@@]5(CNC(=O)O5)[C@H](OC(C)=O)[C@]5(CC)C=CCN6CC[C@]43[C@@H]65)C2)C1 [BM74] | 342 | 710 | –
CC[C@]12C=CCN3CC[C@@]4(c5cc([C@@]6(C(=O)OC)C[C@@H]7C[C@@H](C(C)(F)F)CN(CCc8c6[nH]c6ccccc86)C7)c(OC)cc5N(C)[C@H]4C(O)(COC(C)=O)[C@@H]1OC(C)=O)[C@@H]32 (stereo partly drawn) [BM75] | > 1000 | > 1000 | Average weight (g) At sacrifice (sarcoma 180; 20 mg/kg, iv, d 1, 4): 30.9 g; Tumor Weight (g) X ± SD (sarcoma 180; 20 mg/kg, iv, d 1, 4): 1.53 ± 0.56 g; Average weight (g) At sacrifice (sarcoma 180; 40 mg/kg, iv, d 1, 4): 33.3 g; Tumor Weight (g) X ± SD (sarcoma 180; 40 mg/kg, iv, d 1, 4): 1.85 ± 0.32 g; inhibition in vivo at 20 mg/kg (sarcoma 180; Mus musculus, Sarcoma-180, iv, read-out: Inhibition rate %, 20 mg/kg, iv, d 1, 4): 4.4%; inhibition in vivo at 40 mg/kg (sarcoma 180; Mus musculus, Sarcoma-180, iv, read-out: Inhibition rate %, 40 mg/kg, iv, d 1, 4): 0%
CC[C@]12C=CCN3CC[C@@]4(c5cc([C@@]6(C(=O)OC)C[C@@H]7C[C@@H](C(C)(F)F)CN(CCc8c6[nH]c6ccccc86)C7)c(OC)cc5N(C)[C@H]4C(O)(CNC(C)=O)[C@@H]1OC(C)=O)[C@@H]32 (stereo partly drawn) [BM77] | > 1000 | > 1000 | –
CC[C@]1(O)C[C@@H]2CN(CCc3c([nH]c4ccccc34)[C@@](C(=O)OC)(c3cc4c(cc3OC)N(C)[C@H]3[C@@](O)(C(=O)OC)[C@H](OC(C)=O)[C@]5(CC)C=CCN6CC[C@]43[C@@H]65)C2)C1 [Vinblastine sulfate, vinblastine sulfate, reference compound] | 2.5 | 3.4 | –
CC[C@]1(O)C[C@H]2CN(CCc3c([nH]c4ccccc34)[C@@](C(=O)OC)(c3cc4c(cc3OC)N(C=O)[C@H]3[C@@](O)(C(=O)OC)[C@H](OC(C)=O)[C@]5(CC)C=CCN6CC[C@]43[C@@H]65)C2)C1 [Vincristine sufate, reference compound] | – | – | IC50 ([1]; Homo sapiens, HeLa, SRB assay, 72 hours incubation, ditartrate of all compounds used, read-out: Hela (IC50)): 11.3 nM; IC50 ([2]; Homo sapiens, A549, SRB assay, 72 hours incubation, ditartrate of all compounds used, read-out: A549 (IC50)): 25.1 nM
